Experimental data taken from patent US11572590B2, “Methods for evaluating tumor cell spheroids using 3D microfluidic cell culture device” (Dana-Farber Cancer Institute, Inc., priority 2017, dated 2023).
Where two headings read alike, the source gives them in different places.

Key:
[1] = tested on: Jurkat T cell leukemia cells; assay: IL-2 secretion by Jurkat cells on anti-CD3 coated plates; format: cell-based; settings: dose titration, 24 hours
Method: Freshly isolated human CD4+ and CD8+ T cells were obtained from AllCells (Alameda, Calif., USA). Cells were spun down and resuspended in serum free Xvivo15 media (Lonza Walkersville, Inc., Chicago, Ill., USA) supplemented with 5 ng/mL […] and incubated overnight at 37° C. Cells were plated on anti-CD3 coated plates (5 μg/mL OKT3, eBioscience, Dallas, Tex., USA, overnight) with 2 μg/mL anti-CD28 (eBioscience, Dallas, Tex., USA). Cells are treated in replicate plates with a dose-titration of Compound 1 for 24 hours for IL-2 and 96 hours for IFNγ. IL-2 and IFNγ in the supernatant were measured using single- or multi-plex immunoassay (Mesoscale Discovery, Rockville, Md., USA). Jurkat T cell leukemia cells (clone E61 obtained from ATCC) plated on anti-CD3 coated plates were treated with a dose titration of Compound 1 for 24 hours. IL-2 in the supernatant was measured as described above.

[2] = target: off-target kinases (Homo sapiens, UniProt P05771); assay: SelectScreen Kinase Profiling, single point inhibition and IC50 for off-target kinases; format: biochemical; parameters: other: PRKCB2 (PKC beta II); ZLYTE; ATP Km app; 1000 μM; settings: PRKCB2 (PKC beta II), ZLYTE, ATP Km app
Chain of off-target kinases (Homo sapiens, UniProt P05771) (P05771 1-673 isoform P05771-2): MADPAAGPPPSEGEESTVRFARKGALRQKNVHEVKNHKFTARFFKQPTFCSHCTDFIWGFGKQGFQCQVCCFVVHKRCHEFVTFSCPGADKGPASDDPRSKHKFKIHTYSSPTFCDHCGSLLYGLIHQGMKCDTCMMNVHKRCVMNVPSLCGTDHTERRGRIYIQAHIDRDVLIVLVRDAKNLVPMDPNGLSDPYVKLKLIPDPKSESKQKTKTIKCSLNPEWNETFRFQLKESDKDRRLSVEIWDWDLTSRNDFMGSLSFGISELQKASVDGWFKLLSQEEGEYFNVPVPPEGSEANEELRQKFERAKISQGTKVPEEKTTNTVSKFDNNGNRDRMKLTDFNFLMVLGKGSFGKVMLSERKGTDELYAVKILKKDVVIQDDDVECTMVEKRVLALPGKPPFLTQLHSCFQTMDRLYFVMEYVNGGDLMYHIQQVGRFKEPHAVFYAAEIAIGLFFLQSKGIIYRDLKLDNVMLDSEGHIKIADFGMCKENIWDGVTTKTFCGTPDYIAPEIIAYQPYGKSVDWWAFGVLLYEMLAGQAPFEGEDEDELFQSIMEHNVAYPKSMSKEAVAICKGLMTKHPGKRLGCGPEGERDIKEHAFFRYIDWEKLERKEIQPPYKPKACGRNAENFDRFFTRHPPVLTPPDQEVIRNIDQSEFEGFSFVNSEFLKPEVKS
Method: Biochemical single point inhibition and IC50 concentrations for TBK1, IKKε (IKBKE), and off-target kinases were determined at ThermoFisher Scientific using SelectScreen Kinase Profiling Services (Madison, Wis., USA) (Tables S4A and S4B-1-7). To determine cellular potency, the human colorectal cancer carcinoma cell line HCT116 (ATCC, Manassas, Va.) was maintained in T175 flasks in complete RPMI medium; RPMI 1640 supplemented with 10% FBS, 1× Penicillin-Streptomycin solution and 1×MEM (non-essential amino acids). HCT116 cells were grown to 90-95% confluency in T175 flasks containing complete RPMI medium and transfected in bulk using Lipofectamine 2000 (Invitrogen, Carlsbad, Calif.) with 70 μg of ISG54-luciferase reporter plasmid (Elim Biopharmaceuticals Inc., Hayward, Calif.). The reporter plasmid contains a luciferase gene expression cassette under the transcriptional regulation of the promoter of the human interferon stimulated gene 54 (ISG54). Transfection of the cells was allowed to take place for 6 hours, after which the cells were harvested by treatment with 0.25% trypsin EDTA (Corning Inc., Corning, N.Y.). Trypsinized cells were added to 384-well poly-d-lysine treated black clear bottom tissue culture assay plates (Greiner Bio-One GmbH, Kremsmünster, Austria) at a density of 20,000 cells/well in 80 μL of complete RPMI medium and incubated overnight. After 16-18 hours post-transfection, the assay plates were washed with PBS (Corning Inc., Corning, N.Y.), followed by addition of 80 μL/well of serum-free RPMI 1640 medium containing 1× Penicillin-Streptomycin solution, 1×MEM and 350 nL of DMSO or titrations of Compound 1. […] The assay plates were incubated for 5 hours at 37° C., followed by addition of One-Glo luciferase firefly reagent (Promega, Madison, Wis.) at 1:1 volume/well and luminescence was measured in an EnVision Multilabel Plate Reader (PerkinElmer, Santa Clara, Calif.). The EC50 values were calculated from the fit of the dose-response curves to a four-parameter equation. […]

[3] = target: T1, off-target kinases (Homo sapiens, UniProt P21709); assay: as above; format: biochemical; settings: EPHA1, ZLYTE, ATP Km app
T1 sequence (P21709 26-976): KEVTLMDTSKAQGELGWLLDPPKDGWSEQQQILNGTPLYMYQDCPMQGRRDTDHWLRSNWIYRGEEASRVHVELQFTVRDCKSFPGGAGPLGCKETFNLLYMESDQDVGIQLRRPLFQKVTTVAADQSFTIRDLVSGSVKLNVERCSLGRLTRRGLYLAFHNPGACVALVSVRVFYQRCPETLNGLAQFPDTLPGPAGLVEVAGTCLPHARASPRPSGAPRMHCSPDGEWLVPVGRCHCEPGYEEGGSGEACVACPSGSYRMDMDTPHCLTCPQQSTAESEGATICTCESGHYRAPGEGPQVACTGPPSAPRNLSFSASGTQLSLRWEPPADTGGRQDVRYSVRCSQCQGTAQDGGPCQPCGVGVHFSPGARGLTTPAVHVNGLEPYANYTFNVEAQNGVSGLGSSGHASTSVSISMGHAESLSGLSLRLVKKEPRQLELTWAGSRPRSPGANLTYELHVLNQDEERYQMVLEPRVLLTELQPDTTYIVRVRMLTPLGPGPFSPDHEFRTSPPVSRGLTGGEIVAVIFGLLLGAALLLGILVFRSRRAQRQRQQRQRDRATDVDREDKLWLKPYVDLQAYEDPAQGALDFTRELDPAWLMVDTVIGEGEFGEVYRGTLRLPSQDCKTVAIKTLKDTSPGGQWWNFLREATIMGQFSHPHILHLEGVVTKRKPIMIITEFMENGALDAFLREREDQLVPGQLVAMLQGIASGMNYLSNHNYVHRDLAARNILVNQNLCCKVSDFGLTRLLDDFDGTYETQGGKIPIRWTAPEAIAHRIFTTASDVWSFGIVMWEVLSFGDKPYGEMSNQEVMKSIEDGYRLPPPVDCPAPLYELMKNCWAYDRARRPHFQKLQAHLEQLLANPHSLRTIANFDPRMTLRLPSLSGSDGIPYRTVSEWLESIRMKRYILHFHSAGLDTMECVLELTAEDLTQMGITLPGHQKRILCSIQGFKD

Which results are given for `N#Cc1cc(-c2ncnc(Nc3ccc(N4CCN(C5COC5)CC4)cc3)n2)ccc1OC1CCOCC1` [Compound 1, 5-(4-((4-(4-(oxetan-3-yl)piperazin-1-yl)phenyl)amino)-1,3,5-triazin-2-yl)-2-((tetrahydro-2H-pyran-4-yl)oxy)benzonitrile]?
secretion of IL-2 from Jurkat cells [1]: enhanced secretion; inhibition ([2]; read-out: % Inhibition 1): 12%; inhibition ([2]; read-out: % Inhibition 2): 8%; inhibition ([2]; read-out: % Inhibition Avg): 10%; inhibition ([3]; read-out: % Inhibition 1): 29%; inhibition ([3]; read-out: % Inhibition 2): 24%; inhibition ([3]; read-out: % Inhibition Avg): 27%
